PubChem BioAssay (NCI)
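Here, GI50 denotes the concentration required for 50% inhibition of growth. TGI: total growth inhibition.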

Tests used:
Test in all cases: inhibition of tumour cell growth, NCI panel, 384-well format
HS 578T breast = tested on: HS 578T breast
NCI-H322M lung = tested on: NCI-H322M lung
NCI-H522 lung = tested on: NCI-H522 lung
HL-60(TB) leukemia = tested on: HL-60(TB) leukemia
NCI/ADR-RES ovarian = tested on: NCI/ADR-RES ovarian
HCT-15 colon = tested on: HCT-15 colon
MDA-MB-435 melanoma = tested on: MDA-MB-435 melanoma
A498 renal = tested on: A498 renal
U251 glioblastoma = tested on: U251 glioblastoma
T-47D breast = tested on: T-47D breast
RXF 393 renal = tested on: RXF 393 renal
SK-MEL-5 melanoma = tested on: SK-MEL-5 melanoma
SNB-75 CNS = tested on: SNB-75 CNS
SK-MEL-2 melanoma = tested on: SK-MEL-2 melanoma
NCI-H226 lung = tested on: NCI-H226 lung
SF-539 CNS = tested on: SF-539 CNS
SN12C renal = tested on: SN12C renal
BT-549 breast = tested on: BT-549 breast
HCC-2998 colon = tested on: HCC-2998 colon
LOX IMVI melanoma = tested on: LOX IMVI melanoma
K-562 leukemia = tested on: K-562 leukemia
HOP-92 NSCLC = tested on: HOP-92 NSCLC
MDA-MB-231 breast = tested on: MDA-MB-231 breast
PC-3 prostate = tested on: PC-3 prostate
NCI-H460 NSCLC = tested on: NCI-H460 NSCLC
MOLT-4 leukemia = tested on: MOLT-4 leukemia
A549 NSCLC = tested on: A549 NSCLC
SK-OV-3 ovarian = tested on: SK-OV-3 ovarian
DU-145 prostate = tested on: DU-145 prostate
OVCAR-4 ovarian = tested on: OVCAR-4 ovarian

Question: What does the source list for `Cc1cc(Nc2cc(N3CCN(C)CC3)nc(C#Cc3ccccc3)n2)n[nH]1`?
Answer: GI50 (HS 578T breast): 2240 nM; TGI (HS 578T breast): 9.92 µM; GI50 (NCI-H322M lung): 5.44 µM; TGI (NCI-H322M lung): 19.6 µM; GI50 (NCI-H522 lung): 1710 nM; TGI (NCI-H522 lung): 8.3 µM; GI50 (HL-60(TB) leukemia): 2120 nM; TGI (HL-60(TB) leukemia): 5.14 µM; GI50 (NCI/ADR-RES ovarian): 9.92 µM; TGI (NCI/ADR-RES ovarian): 22 µM; GI50 (HCT-15 colon): 2220 nM; TGI (HCT-15 colon): 11.4 µM; GI50 (MDA-MB-435 melanoma): 3.18 µM; TGI (MDA-MB-435 melanoma): 12.6 µM; GI50 (A498 renal): 1660 nM; TGI (A498 renal): 11 µM; GI50 (U251 glioblastoma): 5.41 µM; TGI (U251 glioblastoma): 18.6 µM; GI50 (T-47D breast): 9.61 µM; TGI (T-47D breast): 21.4 µM; GI50 (RXF 393 renal): 1070 nM; TGI (RXF 393 renal): 4.32 µM; GI50 (SK-MEL-5 melanoma): 2490 nM; TGI (SK-MEL-5 melanoma): 12.9 µM; GI50 (SNB-75 CNS): 1730 nM; TGI (SNB-75 CNS): 4.35 µM; GI50 (SK-MEL-2 melanoma): 4.14 µM; TGI (SK-MEL-2 melanoma): 6.87 µM; GI50 (NCI-H226 lung): 4.3 µM; TGI (NCI-H226 lung): 16.9 µM; GI50 (SF-539 CNS): 3.62 µM; TGI (SF-539 CNS): 15.9 µM; GI50 (SN12C renal): 2730 nM; TGI (SN12C renal): 12.7 µM; GI50 (BT-549 breast): 2580 nM; TGI (BT-549 breast): 7.09 µM; GI50 (HCC-2998 colon): 348 nM; TGI (HCC-2998 colon): 6.72 µM; GI50 (LOX IMVI melanoma): 4.02 µM; TGI (LOX IMVI melanoma): 13 µM; GI50 (K-562 leukemia): 2630 nM; TGI (K-562 leukemia): 12.3 µM; GI50 (HOP-92 NSCLC): 2230 nM; TGI (HOP-92 NSCLC): 8.85 µM; GI50 (MDA-MB-231 breast): 3.54 µM; TGI (MDA-MB-231 breast): 15.9 µM; GI50 (PC-3 prostate): 3.09 µM; TGI (PC-3 prostate): 13.9 µM; GI50 (NCI-H460 NSCLC): 2420 nM; TGI (NCI-H460 NSCLC): 12.1 µM; GI50 (MOLT-4 leukemia): 1260 nM; TGI (MOLT-4 leukemia): 2580 nM; GI50 (A549 NSCLC): 3.44 µM; TGI (A549 NSCLC): 12.2 µM; GI50 (SK-OV-3 ovarian): 1040 nM; TGI (SK-OV-3 ovarian): 4.36 µM; GI50 (DU-145 prostate): 4.04 µM; TGI (DU-145 prostate): 17.4 µM; GI50 (OVCAR-4 ovarian): 5.97 µM
